Results as given in patent US7399744B2, “Methods for affecting body composition” (Amylin Pharmaceuticals, Inc., priority 2004, dated 2008).
Bridge positions count the residues as written; N and C are the ends. Peptide text beside a SMILES is read from it.

Columns and labels:
amylin receptors = target: T1, amylin receptors (Rattus norvegicus, UniProt P32214+Q9JJ74); assay: Receptor binding assay (competition with 125I Bolton Hunter rat amylin, basal forebrain membranes)
T1 construct: This basal forebrain tissue, containing the nucleus accumbens and surrounding regions, was weighed and homogenized; from tissue; host or cells: rat basal forebrain (nucleus accumbens and surrounding regions) membranes
T1 sequence (P32214 25-516): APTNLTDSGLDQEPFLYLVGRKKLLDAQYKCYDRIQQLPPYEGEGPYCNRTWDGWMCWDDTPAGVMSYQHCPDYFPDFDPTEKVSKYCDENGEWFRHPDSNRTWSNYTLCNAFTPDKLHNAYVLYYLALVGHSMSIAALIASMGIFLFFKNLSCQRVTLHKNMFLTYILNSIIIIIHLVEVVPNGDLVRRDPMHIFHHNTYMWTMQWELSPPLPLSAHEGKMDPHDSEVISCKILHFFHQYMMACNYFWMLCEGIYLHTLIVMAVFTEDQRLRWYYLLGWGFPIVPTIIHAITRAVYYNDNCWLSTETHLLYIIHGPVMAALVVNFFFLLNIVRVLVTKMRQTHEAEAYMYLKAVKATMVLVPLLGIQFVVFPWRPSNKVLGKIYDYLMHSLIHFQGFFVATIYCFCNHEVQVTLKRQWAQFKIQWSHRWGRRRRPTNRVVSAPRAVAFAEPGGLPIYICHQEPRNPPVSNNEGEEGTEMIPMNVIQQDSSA
T1 sequence (Q9JJ74 27-148): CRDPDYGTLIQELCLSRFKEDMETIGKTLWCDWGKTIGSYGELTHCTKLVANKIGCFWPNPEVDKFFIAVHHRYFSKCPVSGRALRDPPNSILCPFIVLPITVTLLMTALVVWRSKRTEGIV
Source text: A preferred source of the membrane preparations used in the assay is the basal forebrain which comprises membranes from the nucleus accumbens and surrounding regions.
Unlabeled peptides were obtained from BACHEM Inc. (Torrance, Calif.) and Peninsula Laboratories (Belmont, Calif.).
Male Sprague-Dawley rats (200-250) grams were sacrificed by decapitation. Brains were removed to cold phosphate-buffered saline (PBS). From the ventral surface, cuts were made rostral to the hypothalamus, bounded laterally by the olfactory tracts and extending at a 45° angle medially from these tracts. This basal forebrain tissue, containing the nucleus accumbens and surrounding regions, was weighed and homogenized in ice-cold 20 mM HEPES buffer (20 mM HEPES acid, pH adjusted to 7.4 with NaOH at 23° C.). […] The final membrane pellet was resuspended in 20 mM HEPES buffer containing 0.2 mM phenylmethylsulfonyl fluoride (PMSF).
Solutions were incubated for 60 minutes at 23° C. […] Filters were washed immediately before filtration with 5 ml cold PBS, and immediately after filtration with 15 ml cold PBS.

[1] = test system: insulin-stimulated glycogen synthesis in soleus muscle; assay: Soleus muscle assay; format: cell-based; details: rat soleus muscle, inhibition of glucose incorporation into glycogen
Experimental: Concentrations of peptide dissolved in carrier-free buffers are determined by quantitative amino acid analysis, as described therein. The ability of compounds to act as agonists in this assay is determined by measuring EC50 values. […] Similar results were obtained with other agonist compounds listed above.

CC[C@H](C)[C@H](NC(=O)[C@H](C)NC(=O)CNC(=O)[C@H](Cc1ccccc1)NC(=O)[C@H](CC(N)=O)NC(=O)[C@H](CC(N)=O)NC(=O)[C@H](CO)NC(=O)[C@H](CO)NC(=O)[C@H](Cc1c[nH]cn1)NC(=O)[C@@H](NC(=O)[C@H](CC(C)C)NC(=O)[C@H](Cc1ccccc1)NC(=O)[C@H](CC(N)=O)NC(=O)[C@H](C)NC(=O)[C@H](CC(C)C)NC(=O)[C@H](CCCNC(=N)N)NC(=O)[C@H](CCC(N)=O)NC(=O)[C@@H](NC(=O)[C@H](C)NC(=O)[C@@H]1CCCCNC(=O)C[C@H](NC(=O)[C@@H](N)CCCCN)C(=O)N[C@@H](CC(N)=O)C(=O)N[C@@H]([C@@H](C)O)C(=O)N[C@@H](C)C(=O)N[C@@H]([C@@H](C)O)C(=O)N1)[C@@H](C)O)C(C)C)C(=O)N[C@@H](CC(C)C)C(=O)N[C@@H](CO)C(=O)N[C@@H](CO)C(=O)N[C@H](C(=O)N[C@@H](CC(N)=O)C(=O)N[C@H](C(=O)NCC(=O)N[C@@H](CO)C(=O)N[C@@H](CC(N)=O)C(=O)N[C@H](C(=O)N[C@@H](Cc1ccc(O)cc1)C(N)=O)[C@@H](C)O)C(C)C)[C@@H](C)O [^2,7Cyclo-[^2Asp,^7Lys]-h-Amylin] (H-KDNTATKATQRLANFLVHSSNNFGAILSSTNVGSNTY-NH2; lactam 2-7; N-terminus and C-terminus assumed)
IC50 (amylin receptors): 0.31 nM
EC50 [1]: 6.62 nM
